The data set relates to RNA duplex 1. Put plainly: Depsipeptide hydrolysis assay with or without RNA duplex 1, SimFit modelling. The class given is physicochemical. An excerpt:
Fig. 5 RNA increases the hydrolytic lifetime of a cationic depsipeptide. a A schematic of depsipeptide-RNA interactions leading to increased depsipeptide lifetimes. The free depsipeptide is hydrolyzed with a pseudo-first rate constant, khyd-free. Binding of the depsipeptide to RNA is governed at equilibrium by kassoc/kdissoc. The pseudo-first rate constant for of depsipeptide hydrolysis within the depsipeptide–RNA complex is khyd-complex. Under conditions where complex formation is favorable and khyd-complex < khyd-free, the presence of RNA will increase the depsipeptide lifetime. b HPLC traces (270 nm) showing hydrolysis of depsipeptide 9 (25 μM) at various time points in the presence or absence of RNA duplex 1 at 37 °C in pH 7.3 buffer. The C-terminal fragment of the hydrolyzed depsipeptide is not observed because it lacks the Aba chromophore. (c) Time courses for hydrolysis of depsipeptide 9 (25 μM) with varying concentrations of the RNA duplex 1. The curves shown are from simultaneous fits of data to the model given in panel a using SimFit[44]. During fitting, we fixed kassoc = 1 × 10^5 M^−1 s^−1. Therefore, three rate constants were fit, with values obtained by the fitting of: khyd-free = 1.1 × 10^−4 s^−1, khyd-complex = 3.2 × 10^−6 s^−1, and kdissoc = 8.3 × 10^−3 s^−1. d Kinetic profile of the hydrolysis reaction of depsipeptide 9 (25 μM) in the presence of 7 μM RNA duplex 1. […] The extent of depsipeptide hydrolysis and RNA hybridization were then measured. Data are shown as a scatter plot of two independently repeated experiments.
To determine the extent of depsipeptide hydrolysis, the depsipeptide (25 μM) was incubated at 37 °C in buffer (100 mM HEPES, 10 mM NaCl, pH 7.3) in the presence or absence of 10mer RNA duplex 1 (5′-rCrGrArUrUrUrArGrCrG-3′ and 3′-rGrCrUrArArArUrCrGrC-5′) at various concentrations, or with single-stranded RNA (5′-rCrGrArUrUrUrArGrCrG-3′, 100 μM), for up to 100 h. Prior to adding depsipeptide to the reaction from its stock solution, the RNA was annealed by heating to 75 °C for 5 min, and then slowly cooling to room temperature. Reaction aliquots were quenched using 3% TFA and frozen or immediately analyzed by HPLC (270 nm). The relative concentrations of intact and hydrolyzed depsipeptide were quantified by integrating the corresponding peaks in HPLC traces. The kinetic profiles of depsipeptide hydrolysis were fit using SimFit-32 (provided by G. von Kiedrowski) according to the reaction scheme shown in Fig. 5a.
Data from the nine independent depsipeptide hydrolysis reactions carried out with different concentrations of RNA duplex were simultaneously fit using SimFit to the reaction model shown in Fig. 5a. In the model, the free depsipeptide is subject to hydrolysis at a pseudo-first order rate governed by khyd-free. Binding of the depsipeptide to RNA according to an equilibrium determined by kassoc/kdissoc yields a depsipeptide-RNA complex, for which the pseudo-first order rate of ester hydrolysis is described by khyd-complex. During fitting, we fixed kassoc = 1 × 10^5 M^−1 s^−1, on the lower end of rates observed and expected for protein–RNA association. Therefore, three parameters were variable during the fitting, and the final rate constants determined by the fitting were: khyd-free = 1.1 × 10^−4 s^−1, khyd-complex = 3.2 × 10^−6 s^−1, and kdissoc = 8.3 × 10^−3 s^−1. […] Our model assumes a 1:1 stoichiometry for depsipeptide:RNA in the complex, and assumes the RNA is present only as a duplex (ignores steps involving RNA strand hybridization to form the duplex). The final RMS error of the fit was 5.4%. The output file obtained from the fitting is provided in the Supplementary Note.

[1] abbreviates: SimFit results output file, final NEWTON values.

With “Aba-Gly-Ala-Dab-Lys-Ala-Dab-Lys-lac-Dab-Lys-Ala-Dab-Lys-NH2 [compound 9]”, the “level of intact depsipeptide with RNA vs depsipeptide alone” value (25 μM depsipeptide ± RNA duplex 1 (25 μM each strand), 37 °C, 12 h, HPLC) is listed as “substantially higher levels”. Under “25 μM depsipeptide, RNA duplex 1, 37 °C, pH 7.3 buffer, HPLC”, the “increase of observed depsipeptide lifetime by RNA duplex” value is recorded as ~ 30 fold. In addition, the “kdissoc (depsipeptide–RNA complex)” value (SimFit fit of hydrolysis data with kassoc fixed at 1 × 10^5 M^−1 s^−1, 37 °C, pH 7.3) came to 0.0083 s⁻¹. Moreover, under setting [1], the “k2 (SimFit output; kdissoc)” value was found to be 8.2871E-3 and the “k3 (SimFit output; khyd-complex)” value was found to be 3.1996E-6. The “k1 (SimFit output; khyd-free)” value (SimFit results output file, final NEWTON values, R.M.S. 5.4087 %) turned out to be 1.0596E-4. Besides, the Kd (from fixed kassoc and calculated kdissoc, read-out: predicted dissociation constant of the depsipeptide-RNA complex) was 100 nM. The “fold by which khyd-complex is lower than khyd-free” value (ratio of fitted rate constants) is listed as ~ 34 fold.

Values taken from PMC7305224, “Mutually stabilizing interactions between proto-peptides and RNA” (Nature Communications, 2020).
